# Source: ChEMBL document CHEMBL1201862, “PubChem BioAssay data set” (2004)
#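 Cells were grown in 96-well plates and exposed to each compound for 48 hours at five concentrations; endpoints were interpolated linearly between bracketing concentrations, or set to the highest concentration if not reached. GI50: concentration for 50% inhibition of growth.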 Calls of active or inactive are those of the source. No stated cut-off is given here; in the data, active = GI50 up to about 1.1 µM and inactive = higher.
# Key:
# Assay in all cases: NCI-60 cell line screen, 48 h
# [1] = tested on: MDA-MB-231
# [2] = tested on: HCC 2998
# [3] = tested on: MOLT-4
# [4] = tested on: NCI-H226
# [5] = tested on: Malme-3M
# [6] = tested on: LOX IMVI
# [7] = tested on: SR
# [8] = tested on: IGROV-1
# [9] = tested on: NCI/ADR-RES
# [10] = tested on: T47D
# [11] = tested on: UACC-257
# [12] = tested on: SW-620
# [13] = tested on: SN12C
# [14] = tested on: Hs-578T
# [15] = tested on: 786-0
# [16] = tested on: K562
# [17] = tested on: BT-549
# [18] = tested on: SK-MEL-2
# [19] = tested on: U-251
# [20] = tested on: MDA-MB-435
# [21] = tested on: RPMI-8226
# [22] = tested on: M14
# [23] = tested on: HT-29
# [24] = tested on: HOP-62
# [25] = tested on: CCRF-CEM
# [26] = tested on: HCT-116
# [27] = tested on: OVCAR-5
# [28] = tested on: TK-10
# [29] = tested on: SNB-75
# [30] = tested on: ACHN
# [31] = tested on: RXF 393
# [32] = tested on: PC-3
# [33] = tested on: COLO 205
# [34] = tested on: HCT-15
# [35] = tested on: MCF7
# [36] = tested on: MDA-N
# [37] = tested on: KM12
# [38] = tested on: OVCAR-8
# [39] = tested on: HL-60
# [40] = tested on: UO-31
# [41] = tested on: SK-OV-3
# [42] = tested on: SF-295
# [43] = tested on: SK-MEL-5
# [44] = tested on: NCI-H23
# [45] = tested on: SF-539
# [46] = tested on: NCI-H522
# [47] = tested on: EKVX
# [48] = tested on: HOP-92
# [49] = tested on: SF-268
# [50] = tested on: DU-145
# [51] = tested on: UACC-62
# [52] = tested on: OVCAR-3
# [53] = tested on: SNB-19
# [54] = tested on: NCI-H460
# [55] = tested on: SK-MEL-28
# [56] = tested on: OVCAR-4
# [57] = tested on: A498
# [58] = tested on: A549
# [59] = tested on: CAKI-1
compound,measurement,setting,value
CCOC(=O)CC/C(=N/Nc1ccc(Cl)cc1[N+](=O)[O-])C(=O)OCC,GI50,[1],> 100 µM (inactive)
same,GI50,[2],26.2 µM (inactive)
same,GI50,[3],> 100 µM (inactive)
same,GI50,[4],> 100 µM (inactive)
same,GI50,[5],> 100 µM (inactive)
same,GI50,[6],> 100 µM (inactive)
same,GI50,[7],45.7 µM (inactive)
same,GI50,[8],> 100 µM (inactive)
same,GI50,[9],> 100 µM (inactive)
same,GI50,[10],93.3 µM (inactive)
same,GI50,[11],> 100 µM (inactive)
same,GI50,[12],> 100 µM (inactive)
same,GI50,[13],> 100 µM (inactive)
same,GI50,[14],> 100 µM (inactive)
same,GI50,[15],> 100 µM (inactive)
same,GI50,[16],> 100 µM (inactive)
same,GI50,[17],> 100 µM (inactive)
same,GI50,[18],> 100 µM (inactive)
same,GI50,[19],> 100 µM (inactive)
same,GI50,[20],> 100 µM (inactive)
same,GI50,[21],> 100 µM (inactive)
same,GI50,[22],> 100 µM (inactive)
same,GI50,[23],> 100 µM (inactive)
same,GI50,[24],> 100 µM (inactive)
same,GI50,[25],> 100 µM (inactive)
same,GI50,[26],> 100 µM (inactive)
same,GI50,[27],> 100 µM (inactive)
same,GI50,[28],> 100 µM (inactive)
same,GI50,[29],61.8 µM (inactive)
same,GI50,[30],> 100 µM (inactive)
same,GI50,[31],> 100 µM (inactive)
same,GI50,[32],> 100 µM (inactive)
same,GI50,[33],> 100 µM (inactive)
same,GI50,[34],> 100 µM
same,GI50,[35],> 100 µM (inactive)
same,GI50,[36],> 100 µM (inactive)
same,GI50,[37],> 100 µM (inactive)
same,GI50,[38],> 100 µM (inactive)
same,GI50,[39],> 100 µM (inactive)
same,GI50,[40],> 100 µM (inactive)
same,GI50,[41],> 100 µM (inactive)
same,GI50,[42],> 100 µM (inactive)
same,GI50,[43],> 100 µM (inactive)
same,GI50,[44],> 100 µM (inactive)
same,GI50,[45],> 100 µM (inactive)
same,GI50,[46],> 100 µM (inactive)
same,GI50,[47],> 100 µM (inactive)
same,GI50,[48],11.4 µM (inactive)
same,GI50,[49],> 100 µM (inactive)
same,GI50,[50],> 100 µM (inactive)
same,GI50,[51],> 100 µM (inactive)
same,GI50,[52],> 100 µM (inactive)
same,GI50,[53],> 100 µM (inactive)
same,GI50,[54],> 100 µM (inactive)
same,GI50,[55],> 100 µM (inactive)
same,GI50,[56],> 100 µM (inactive)
same,GI50,[57],34.8 µM (inactive)
same,GI50,[58],> 100 µM (inactive)
COc1ccc2c(c1)/C(=C(\C(Cl)=C(Cl)Cl)[N+](=O)[O-])N2,GI50,[1],> 100 µM (inactive)
same,GI50,[2],> 100 µM (inactive)
same,GI50,[3],24.2 µM (inactive)
same,GI50,[4],22.3 µM (inactive)
same,GI50,[5],88.9 µM (inactive)
same,GI50,[6],76.4 µM (inactive)
same,GI50,[7],11 µM (inactive)
same,GI50,[8],> 100 µM (inactive)
same,GI50,[9],79.8 µM (inactive)
same,GI50,[10],67.3 µM (inactive)
same,GI50,[11],> 100 µM (inactive)
same,GI50,[12],73.8 µM (inactive)
same,GI50,[13],> 100 µM (inactive)
same,GI50,[14],80.2 µM (inactive)
same,GI50,[15],69.8 µM (inactive)
same,GI50,[16],39 µM (inactive)
same,GI50,[17],49.7 µM (inactive)
same,GI50,[19],91.2 µM (inactive)
same,GI50,[20],51.2 µM (inactive)
same,GI50,[22],> 100 µM (inactive)
same,GI50,[23],> 100 µM (inactive)
same,GI50,[24],> 100 µM (inactive)
same,GI50,[25],31.1 µM (inactive)
same,GI50,[26],> 100 µM (inactive)
same,GI50,[27],> 100 µM (inactive)
same,GI50,[28],> 100 µM (inactive)
same,GI50,[29],35.7 µM (inactive)
same,GI50,[30],> 100 µM (inactive)
same,GI50,[31],39.5 µM (inactive)
same,GI50,[32],72.1 µM (inactive)
same,GI50,[33],> 100 µM (inactive)
same,GI50,[34],> 100 µM
same,GI50,[35],> 100 µM (inactive)
same,GI50,[36],83.2 µM (inactive)
same,GI50,[37],> 100 µM (inactive)
same,GI50,[38],92.5 µM (inactive)
same,GI50,[39],> 100 µM (inactive)
same,GI50,[40],> 100 µM (inactive)
same,GI50,[41],> 100 µM (inactive)
same,GI50,[42],62.4 µM (inactive)
same,GI50,[43],41 µM (inactive)
same,GI50,[44],87.7 µM (inactive)
same,GI50,[46],25.3 µM (inactive)
same,GI50,[47],26.7 µM (inactive)
same,GI50,[48],> 100 µM (inactive)
same,GI50,[49],70.3 µM (inactive)
same,GI50,[50],> 100 µM (inactive)
same,GI50,[51],> 100 µM (inactive)
same,GI50,[59],90.6 µM (inactive)
same,GI50,[52],28.2 µM (inactive)
same,GI50,[53],> 100 µM (inactive)
same,GI50,[54],> 100 µM (inactive)
same,GI50,[55],> 100 µM (inactive)
same,GI50,[56],49.1 µM (inactive)
same,GI50,[57],92.7 µM (inactive)
same,GI50,[58],> 100 µM (inactive)
